Results: PMC7263498 (bioRxiv, 2020)

Target: M^Pro (SARS-CoV-2 main protease) (Severe acute respiratory syndrome coronavirus 2, UniProt P0DTD1)
Assay: FRET peptide
Type: biochemical

CN1CCN(CC(=O)N2c3ccccc3C(=O)Nc3cccnc32)CC1 [Pirenzepine]
% activation at 1 mM: > 15%
